Legend:
[1] = biological target: T1, Orexin/Hypocretin receptor type 1 (Homo sapiens, UniProt O43613); assay: Binding affinity to OX1 receptor
T1 sequence (O43613 whole entry): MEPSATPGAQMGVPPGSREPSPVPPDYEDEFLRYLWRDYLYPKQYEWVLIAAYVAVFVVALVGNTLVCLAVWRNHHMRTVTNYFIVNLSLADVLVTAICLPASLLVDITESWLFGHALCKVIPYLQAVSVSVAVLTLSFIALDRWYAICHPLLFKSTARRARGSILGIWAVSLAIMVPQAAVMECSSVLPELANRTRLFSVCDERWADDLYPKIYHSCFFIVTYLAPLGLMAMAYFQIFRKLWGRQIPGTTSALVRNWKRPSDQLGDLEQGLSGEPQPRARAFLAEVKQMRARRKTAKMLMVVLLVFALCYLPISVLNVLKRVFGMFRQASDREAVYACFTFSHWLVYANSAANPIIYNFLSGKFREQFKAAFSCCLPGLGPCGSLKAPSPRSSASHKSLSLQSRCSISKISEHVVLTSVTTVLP

Orexin receptor type 2 = biological target: T2, Orexin receptor type 2 (Homo sapiens, UniProt O43614); assay: Binding affinity to OX2 receptor
T2 sequence (O43614 whole entry): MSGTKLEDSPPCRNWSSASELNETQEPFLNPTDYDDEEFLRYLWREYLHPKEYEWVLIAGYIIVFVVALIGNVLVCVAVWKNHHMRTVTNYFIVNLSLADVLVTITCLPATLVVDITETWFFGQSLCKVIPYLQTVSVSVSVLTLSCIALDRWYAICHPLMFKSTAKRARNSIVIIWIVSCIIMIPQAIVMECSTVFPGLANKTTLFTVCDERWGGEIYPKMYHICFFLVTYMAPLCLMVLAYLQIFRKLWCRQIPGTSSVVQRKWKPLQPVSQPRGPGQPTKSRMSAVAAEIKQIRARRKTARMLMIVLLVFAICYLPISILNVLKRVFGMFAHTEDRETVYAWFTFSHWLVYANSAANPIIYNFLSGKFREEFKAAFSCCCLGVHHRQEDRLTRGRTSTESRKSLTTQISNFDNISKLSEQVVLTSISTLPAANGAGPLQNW

| Compound | Ki [1] | Ki (Orexin receptor type 2) |
| --- | --- | --- |
| O=C1c2cc(ccc2-n2nccn2)CCCCCCc2ccc3cc(ccc3c2)N2CCCN1CC2 | 51 nM | 42 nM |
| Cc1ccc(-n2nccn2)c(C(=O)N2CCCN(c3ccc4ccccc4c3)CC2)c1 | 2 nM | 2 nM |
| Cc1ccc(-n2nccn2)c(CN2CCCN(c3ncc4ccccc4n3)CC2)c1 | 930 nM | 240 nM |
| O=C(C1CCCCC1)N1CCCN(c2ncc3ccccc3n2)CC1 | 9800 nM | 550 nM |
